According to US20040214803A1, “Use of vitamin d3 analogue for the treatment of autoimmune diabetes” (priority 2001, published 2004):

Tests used:
[1] = system: NOD mice; assay: Type 1 DM development in NOD mice (blood glucose monitoring); format: in vivo, mouse; conditions: NOD female mice, 0.03 μg/Kg per os
Method: The non-obese (NOD)/Lt mice used for the experiments were purchased from Charles River Laboratories (Calco, Italy). All mice were kept under specific pathogen-free conditions. Glucose levels in the tail venous blood were quantified using a EUROFlash (Lifescan, Issy les Moulineaux, France). A diagnosis of diabetes was after two sequential glucose measurements higher than 200 mg/dl.
1,25-dihydroxy-16,23Z-diene-26,27-hexafluoro-19-nor vitamin D3, was dissolved in ethanol (1 mg/ml) and then diluted in miglyol 812. NOD/Lt. The mice were dosed orally with vehicle (miglyol 812) alone or vehicle containing Compound A (0,03 μg/Kg body weight) 5×/week from 8 to 12 or from 8 to 16 weeks of age.
NOD female mice were treated […] with Compound A (0.03 μg/Kg body weight per os) or vehicle from 8 to 12 or 16 weeks of age and glycemia levels were monitored until 38 weeks of age. […] About 90% of vehicle-treated controls were diabetic by 38 weeks of age compared to only 50% of mice treated with Compound A from 8 to 12 weeks of age. A longer treatment, from 8 to 16 weeks of age, afforded higher protection, and only 16% of NOD mice developed type 1 DM.
FIG. 1. (page 1/9) Compound A administration to 8-week-old NOD mice inhibits type 1 DM development. NOD mice were treated 5×/week with vehicle (open circles) or with 0.03 μg/Kg Compound A p.o. (filled circles) from 8 to 16 weeks of age, or from 8 to 12 weeks of age (filled squares). Type 1 DM development was monitored twice weekly by measurement of blood glucose levels. The P values were calculated by Mann-Whitney U test.

[2] = system: IL-12p75; assay: LPS-induced IL-12 production in vivo (serum ELISA); set-up: species or system mouse
Method: Lymphokine production was induced in 8 week-old female NOD mice by i.p. injection of 400 μg/mouse Salmonella abortus equi LPS (Sigma). Compound A was administered 72, 48, 24, and 1 h prior to LPS. Blood samples were collected 3 h post LPS injection and serum cytokines measured by ELISA.
Cytokines were quantified by two-sites ELISA. IFN-γ was determined using paired mAb from PharMingen (San Diego, Calif.). For capture, the mAb was AN-18.17.24. Samples were titrated and incubated overnight at 4° C. To detect bound IFN-γ plates were then incubated with biotinylated XMG1.2 mAb. […] The plates were washed again and incubated with the developing substrate p-nitrophenylphosphate disodium (Sigma) in diethanolamine buffer (pH 9.6; 100 μl/well). The reaction was stopped by adding 50 μl/well NaOH 3N, and absorbance was read at 405 nm. ELISA for IL-12p75 was performed as described (Gately, M. K., et al., Current Protocols Immunol. 1995, 3, 15:6.16.11-16.16.15). Cytokines were quantified from two to three titration points using standard curves generated by purified recombinant mouse cytokines and results expressed as cytokine concentration in ng or pg/ml. Detection limits were 15 pg/ml for both cytokines. […]
FIG. 3. […] IFN-γ, IL-12p75 and serum calcium levels were quantified 3 h post LPS injection. […] The P values were calculated by Mann-Whitney U test (* indicates P<0.05 vs. vehicle-treated NOD mice).

[3] = Serum calcium levels after Compound A treatment; format: in vivo, mouse; conditions: 0.03 μg/Kg per os daily for 4 days before LPS injection, NOD mice
Method: In this experiment the capacity of Compound A to inhibit LPS-induced IL-12 and IFN-γ production in vivo is tested. Mice were pre-treated with vehicle or with 0.03 μg/Kg Compound A administered per os daily for 4 days before LPS injection.
FIG. 3. […] Compound A (0.03 μg/Kg) was administered orally in miglyol to NOD mice 72, 48, 24 and 1 h before LPS injection. IFN-γ, IL-12p75 and serum calcium levels were quantified 3 h post LPS injection. Bars represent the mean ±SE of 10 mice/group. The P values were calculated by Mann-Whitney U test (* indicates P<0.05 vs. vehicle-treated NOD mice).

[4] = system: aortic allografts; assay: Aortic allograft chronic rejection: intimal thickening / luminal reduction; format: in vivo, mouse; conditions: 0.03 μg/kg p.o. five times per week day 0 to day 30; grafts analysed 60 days after transplantation; vehicle >60%
Method: Mice: BALB/c and C57BL/6 (B6) male mice, weighing 22-24 g, were purchased from Charles River Laboratories (Calco, Italy), and kept under specific pathogen-free conditions. B6 (H-2^b) mice were used as donors and BALB/c (H-2^d) as recipients of aortic allografts.
Aorta transplantation: The entire procedure was performed according to Koulack et al. Development of a mouse aortic transplant model of chronic rejection Microsurgery 1995; 16: 110-3, with the modification described by Hong et al. Improved surgical technique for the establishment of a murine model of aortic transplantation. Microsurgery 1998; 18: 368-71. […]
Determination of luminal reduction: Luminal reduction was assessed in 5 μm-thick frozen transverse aortic sections stained with hematoxylin and eosin obtained 60 days post transplantation. To quantify morphological changes in the graft, we used a Leica DC camera (Leica IM 1000 image manager) to acquire the image, and the Leica Qwin software to calculate the luminal reduction percentage. […]
Statistical analysis: Numerical data are expressed as mean ±SD. Data on percent luminal reduction were analysed by a non parametric Students's t-test.
The effect of Compound A in preventing chronic rejection was evaluated using the aortic graft model in the mouse. […] Aortic grafts were analyzed 60 days after transplantation.

## C[C@H](C/C=C\C(O)(C(F)(F)F)C(F)(F)F)C1=CC[C@H]2/C(=C/C=C3C[C@@H](O)C[C@H](O)C3)CCC[C@]12C [Compound A, 1,25-dihydroxy-16,23Z-diene-26,27-hexafluoro-19-nor vitamin D3]
[1]; from 8 to 12 or 16 weeks of age
  incidence of disease compared to controls: significantly lower
[1]; treated from 8 to 12 weeks of age, vehicle controls about 90%
  diabetic by 38 weeks of age: 50%
[1]; treated from 8 to 16 weeks of age, vehicle controls about 90%
  developed type 1 DM (by 38 weeks of age): 16%
[2]; 0.03 μg/Kg per os 72, 48, 24, 1 h before LPS, serum 3 h post LPS
  LPS-induced IL-12p75 production: inhibited significantly
[2]; higher than 1,25(OH)2D3 (literature comparison)
  potency in inhibiting LPS-induced IL-12p75 and IFN-γ production relative to 1,25(OH)2D3: about 100 fold
[3]
  hypercalcemia (serum calcium levels): did not induce hypercalcemia
[4]
  intimal thickening: < 20%
